According to patent US9278958B2, “Anti-cancer compounds” (KATHOLIEKE UNIVERSITEIT LEUVEN, priority 2012, dated 2016):
Like-named read-outs stand apart in the source and are kept apart here.

Legend:
[1] = test system: HeLa cervix carcinoma cells; assay: Cytostatic assay, HeLa; type: cell-based, human; details: Homo sapiens
Procedure: (§1) To each well of a 96-well microtiter plate were added 5-7.5×10^4 cells and a given amount of the test compound. The cells were allowed to proliferate for 48 h to 96 h (depending on the nature of the cell line) at 37° C. in a humidified CO2-controlled atmosphere. At the end of the incubation period, the cells were counted in a Coulter Counter (Coulter Electronics Ltd, Harpenden Herts, United Kingdom).

CEM cells = assay: Cytostatic assay, CEM; type: cell-based; details: for IC50: Homo sapiens, CCRF-CEM; for Ratio (tumor cell selectivity): ratio IC50 HeLa / IC50 CEM
Procedure: as §1

HepG2C3A hepatoma cells = assay: Cytostatic assay, HepG2C3A; type: cell-based; details: Homo sapiens, HepG2/C3A; Table 4
Procedure: as §1

C8166 cells = assay: Cytostatic assay, C8166; type: cell-based; details: Homo sapiens, Table 2
Procedure: as §1

PLC/PRF/5 hepatoma cells = assay: Cytostatic assay, PLC/PRF/5; type: cell-based; details: Homo sapiens, Table 4
Procedure: as §1

[2] = test system: PC3 (rega) prostate cancer cells; assay: Cytostatic assay, PC3 (rega); type: cell-based; details: Table 4
Procedure: as §1

HUT-78 cells = assay: Cytostatic assay, HUT-78; type: cell-based; details: Homo sapiens, HuT78; Table 2
Procedure: as §1

[3] = test system: Caki-1 kidney carcinoma cells; assay: Cytostatic assay, Caki-1; type: cell-based; details: Homo sapiens, Table 3
Procedure: as §1

MT-4 cells = assay: Cytostatic assay, MT-4; type: cell-based; details: Homo sapiens, MT4; Table 2
Procedure: as §1

[4] = test system: THP-1, human monocytic cells; assay: Cytostatic assay, THP-1; type: cell-based; details: Table 2
Procedure: as §1

[5] = test system: LNCaP (UZ) prostate cancer cells; assay: Cytostatic assay, LNCaP (UZ); type: cell-based; details: Homo sapiens, Table 4
Procedure: as §1

[6] = test system: DU145 (UZ) prostate cancer cells; assay: Cytostatic assay, DU145 (UZ); type: cell-based; details: Homo sapiens, DU-145; Table 4
Procedure: as §1

[7] = test system: Raji, human B-lymphoma cells; assay: Cytostatic assay, Raji; type: cell-based; details: Table 2
Procedure: as §1

[8] = test system: 22Rv1 (UZ) prostate cancer cells; assay: Cytostatic assay, 22Rv1 (UZ); type: cell-based; details: Homo sapiens, Table 4
Procedure: as §1

[9] = test system: FM3A mammary carcinoma cells; assay: Cytostatic assay, FM3A; type: cell-based, murine; details: Mus musculus, Table 3
Procedure: as §1

[10] = test system: U937, human monocytic cells; assay: Cytostatic assay, U937; type: cell-based; details: U-937, Table 2
Procedure: as §1

Sup T1 cells = assay: Cytostatic assay, Sup T1; type: cell-based; details: Homo sapiens, Table 2, read-out: Cytostatic activity (μM) Sup T 1
Procedure: as §1

[11] = test system: OST TK- osteosarcoma cells; assay: Cytostatic assay, OST TK-; type: cell-based; details: Homo sapiens; Table 3
Procedure: as §1

[12] = test system: 293T embryonic kidney cells; assay: Cytostatic assay, 293T; type: cell-based; details: Homo sapiens, HEK-293T; Table 3
Procedure: as §1

U87 glioma cells = assay: Cytostatic assay, U87; type: cell-based; details: Homo sapiens, U-87 MG; Table 3
Procedure: as §1

[13] = test system: HT29 colorectal carcinoma cells; assay: Cytostatic assay, HT29; type: cell-based; details: Homo sapiens, HT-29; Table 3
Procedure: as §1

MT-2 cells = assay: Cytostatic assay, MT-2; type: cell-based; details: Homo sapiens, MT2; Table 2
Procedure: as §1

[14] = test system: BAEC aortic endothelial cells; assay: Cytostatic assay, BAEC; type: cell-based, bovine; details: Bos taurus, Table 3
Procedure: as §1

Huh-7 hepatoma cells = assay: Cytostatic assay, Huh-7; type: cell-based; details: Homo sapiens, Table 4
Procedure: as §1

BPH-1 (UZ) = assay: Cytostatic assay, BPH-1 (UZ); type: cell-based; details: Homo sapiens, Table 4
Procedure: as §1

[15] = test system: Caki-2 kidney carcinoma cells; assay: Cytostatic assay, Caki-2; type: cell-based; details: Homo sapiens, Table 3
Procedure: as §1

Molt4/C8 cells = assay: Cytostatic assay, Molt4/C8; type: cell-based; details: Table 2
Procedure: as §1

[16] = test system: MCF-7 mammary carcinoma cells; assay: Cytostatic assay, MCF-7; type: cell-based; details: Homo sapiens, MCF7; Table 3
Procedure: as §1

[17] = test system: HL60, human leukemia cells; assay: Cytostatic assay, HL-60; type: cell-based; details: Table 2
Procedure: as §1

[18] = test system: PC-3 (UZ) prostate cancer cells; assay: Cytostatic assay, PC-3 (UZ); type: cell-based; details: Table 4
Procedure: as §1

[19] = test system: HEL embryonic lung fibroblast cells; assay: Cytostatic assay, HEL; type: cell-based; details: Homo sapiens, Table 3
Procedure: as §1

[20] = test system: PNT1A (UZ) prostate cells; assay: Cytostatic assay, PNT1A (UZ); type: cell-based; details: Homo sapiens, Table 4
Procedure: as §1

[21] = HeLa cells, Table 7, 5-arylthiomethyl-substituted 2-amino-3-carboxymethylthiophenes, read-out: IC50 (μM) HeLa
[22] = CEM cells, Table 7, 5-arylthiomethyl-substituted 2-amino-3-carboxymethylthiophenes, read-out: IC50 (μM) CEM
[23] = HeLa cells, Table 6, 5-alkyl-substituted 2-aminothiophenes, read-out: IC50 (μM) HeLa
[24] = CEM cells, Table 6, 5-alkyl-substituted 2-aminothiophenes, read-out: IC50 (μM) CEM
[25] = Table 3, read-out: Cytostatic activity (μM) Hela
[26] = Table 1a, read-out: IC50 μM (CEM)
[27] = Table 2, read-out: Cytostatic activity (μM) CEM

## COC(=O)c1cc(CSc2ccc(OC)cc2)sc1N [TJ130, Methyl 2-amino-5-((4-methoxyphenylthio)methyl)thiophene-3-carboxylate]
[1]; [21]
  IC50: 88 µM
[1]; Table 1b, read-out: IC50 (μM) (HeLa)
  IC50: 88 ± 10 µM
CEM cells; [22]
  IC50: 3.9 µM
CEM cells; Table 1b, read-out: IC50 (μM) (CEM)
  IC50: 3.9 ± 1.4 µM
CEM cells; Table 7
  Ratio (tumor cell selectivity): 23

## CCc1cc(C(=O)OC)c(N)s1 [TJ157, Methyl 2-amino-5-ethylthiophene-3-carboxylate]
[1]; [23]
  IC50: 180 µM
CEM cells; [24]
  IC50: 175 µM
CEM cells; Table 6
  Ratio (tumor cell selectivity): 1

## COC(=O)c1cc(CCCCl)sc1N [TJ168D, Methyl 2-amino-5-(3-chloropropyl)thiophene-3-carboxylate]
[1]; [23]
  IC50: 150 µM
CEM cells; [24]
  IC50: 26 µM
CEM cells; Table 6
  Ratio (tumor cell selectivity): 6

## COC(=O)c1cc(CCCSc2ccc(OC)cc2)sc1N [TJ169, Methyl 2-amino-5-(3-(4-methoxyphenylthio)propyl)thiophene-3-carboxylate]
[1]; [21]
  IC50: 59 µM
CEM cells; [22]
  IC50: 0.97 µM
CEM cells; Table 7
  Ratio (tumor cell selectivity): 61

## COC(=O)c1cc(CCCSC2CCCCC2)sc1N [TJ170, Methyl 2-amino-5-(3-(cyclohexylthio)propyl)thiophene-3-carboxylate]
[1]; [21]
  IC50: 55 µM
CEM cells; [22]
  IC50: 0.57 µM
CEM cells; Table 7
  Ratio (tumor cell selectivity): 96

## COC(=O)c1cc(CSC2CCCC2)sc1N [TJ179, Methyl 2-amino-5-(cyclopentylthiomethyl)thiophene-3-carboxylate]
[1]; [21]
  IC50: 80 µM
CEM cells; [22]
  IC50: 1.8 µM
CEM cells; Table 7
  Ratio (tumor cell selectivity): 44

## COC(=O)c1cc(CSc2ccc(-c3ccccc3)cc2)sc1N [TJ184, Methyl 2-amino-5-((biphenyl-4-ylthio)methyl)thiophene-3-carboxylate]
[1]; [21]
  IC50: 55 µM
CEM cells; [22]
  IC50: 1.2 µM
CEM cells; Table 7
  Ratio (tumor cell selectivity): 46

## CCc1ccc(SCc2cc(C(=O)OC)c(N)s2)cc1 [TJ185, Methyl 2-amino-5-((4-ethylphenylthio)methyl)thiophene-3-carboxylate]
[1]; [21]
  IC50: 49 µM
CEM cells; [22]
  IC50: 0.34 µM
CEM cells; Table 7
  Ratio (tumor cell selectivity): 144

## COC(=O)c1cc(CSc2ccc(C(C)C)cc2)sc1N [TJ186, Methyl 2-amino-5-((4-isopropylphenylthio)methyl)thiophene-3-carboxylate]
[1]; [21]
  IC50: 46 µM
CEM cells; [22]
  IC50: 0.46 µM
CEM cells; Table 7
  Ratio (tumor cell selectivity): 100

## COC(=O)c1cc(CSCCc2ccccc2)sc1N [TJ187, Methyl 2-amino-5-(phenethylthiomethyl)thiophene-3-carboxylate]
[1]; [21]
  IC50: 74 µM
CEM cells; [22]
  IC50: 1.2 µM
CEM cells; Table 7
  Ratio (tumor cell selectivity): 62

## CCCc1cc(C(=O)OC)c(N)s1 [TJ190, Methyl 2-amino-5-propylthiophene-3-carboxylate]
[1]; [23]
  IC50: 61 µM
CEM cells; [24]
  IC50: 6.9 µM
CEM cells; Table 6
  Ratio (tumor cell selectivity): 9

## COC(=O)c1c(N)sc(CCc2cc(OC)ccc2OC)c1C [TR599, 2-Amino-5-[2-(2,5-dimethoxy-phenyl)-ethyl]-4-methyl-thiophene-3-carboxylic acid methyl ester]
HepG2C3A hepatoma cells
  IC50: 34 ± 22 µM
C8166 cells
  IC50: 110 ± 31 µM
[1]; [25]
  IC50: 38 ± 11 µM
PLC/PRF/5 hepatoma cells
  IC50: 36 ± 2.8 µM
[2]
  IC50: 24 ± 12 µM
HUT-78 cells
  IC50: 21 ± 1.4 µM
[3]
  IC50: 57 ± 38 µM
MT-4 cells
  IC50: 58 ± 21 µM
[4]
  IC50: 9 ± 0.6 µM
[5]
  IC50: 8.7 ± 4.7 µM
[6]
  IC50: 35 ± 16 µM
[7]
  IC50: 49 ± 13 µM
[8]
  IC50: 28 ± 19 µM
[9]
  IC50: 48 ± 3.5 µM
[10]
  IC50: 68 ± 0.7 µM
Sup T1 cells
  IC50: 32 ± 15 µM
[11]
  IC50: 34 ± 23 µM
CEM cells; [26]
  IC50: 44 µM
CEM cells; [27]
  IC50: 44 µM
[12]
  IC50: 52 ± 2.1 µM
U87 glioma cells
  IC50: 41 ± 4.9 µM
[13]
  IC50: 47 ± 2.1 µM
MT-2 cells
  IC50: 37 ± 29 µM
[14]
  IC50: 52 ± 46 µM
Huh-7 hepatoma cells
  IC50: 52 ± 7.8 µM
BPH-1 (UZ)
  IC50: 43 ± 3.5 µM
[15]
  IC50: 52 ± 17 µM
Molt4/C8 cells
  IC50: 47 ± 16 µM
[16]
  IC50: 11 ± 8.5 µM
[17]
  IC50: 18 ± 4.9 µM
[18]
  IC50: 25 ± 5.7 µM
[19]
  IC50: 46 ± 3.5 µM
[20]
  IC50: 46 ± 2.1 µM

## COC(=O)c1cc(-c2cc(OC)ccc2OC)sc1N [TR601, 2-Amino-5-(2,5-dimethoxy-phenyl)-thiophene-3-carboxylic acid methyl ester]
HepG2C3A hepatoma cells
  IC50: 22 ± 18 µM
C8166 cells
  IC50: 102 ± 1.4 µM
[1]; [25]
  IC50: 39 ± 9.2 µM
PLC/PRF/5 hepatoma cells
  IC50: 26 ± 0.71 µM
[2]
  IC50: 23 ± 14 µM
HUT-78 cells
  IC50: 109 ± 82 µM
[3]
  IC50: 8.8 ± 3.1 µM
MT-4 cells
  IC50: 50 ± 25 µM
[4]
  IC50: 25 ± 5.7 µM
[5]
  IC50: 21 ± 8.5 µM
[6]
  IC50: 37 ± 2.1 µM
[7]
  IC50: 45 ± 11 µM
[8]
  IC50: 11 ± 4.8 µM
[9]
  IC50: 59 ± 11 µM
[10]
  IC50: 85 ± 2.8 µM
Sup T1 cells
  IC50: 38 ± 25 µM
[11]
  IC50: 32 ± 18 µM
CEM cells; [26]
  IC50: 42 µM
CEM cells; [27]
  IC50: 42 ± 1.4 µM
[12]
  IC50: 43 ± 16 µM
U87 glioma cells
  IC50: 25 µM
[13]
  IC50: 42 µM
MT-2 cells
  IC50: 14 ± 2.8 µM
[14]
  IC50: 26 ± 7.1 µM
Huh-7 hepatoma cells
  IC50: 49 ± 19 µM
BPH-1 (UZ)
  IC50: 31 µM
[15]
  IC50: 24 ± 9.2 µM
Molt4/C8 cells
  IC50: 28 ± 6 µM
[16]
  IC50: 44 ± 28 µM
[17]
  IC50: 21 µM
[18]
  IC50: 25 µM
[19]
  IC50: 17 ± 5.7 µM
[20]
  IC50: 38 ± 5.7 µM
